Measured values as given in publication PMC4501006, “Preliminary Characterization and In Vivo Studies of Structurally Identical ^18F- and ^125I-Labeled Benzyloxybenzenes for PET/SPECT Imaging of β-Amyloid Plaques” (Scientific Reports, 2015).

Experiment: In vivo biodistribution in normal ICR mice
Conditions: i.v.
Method: Histograms of brain and intestine uptake were presented in Fig. 6 for comparison, while detailed data concerning the in vivo biodistribution in normal ICR mice were collected in Table S3 in Supplementary information. […] [^125I]7a and [^125I]12a were rapidly cleared from the normal brain, with only small amounts of radioactivity remaining at 60 min post-injection (0.55% ID/g for [^125I]7a and 0.37% ID/g for [^125I]12a). […] In addition, no significant deiodination was observed (less than 0.5% ID in the thyroid at 60 min).
As the specific activity of ^18F-labeled ligands (about 60 GBq/μmol) was slightly lower than that of corresponding no-carrier-added ^125I-labeled ligands (81 GBq/μmol), the impact of specific activity on pharmacokinetics was studied. In vivo biodistribution of radioactivity after injection of carrier-added [^125I]7a with equal specific activity to corresponding [^18F]7a (60 GBq/μmol) was conducted in normal ICR mice through the same procedure.
A structural model of an Aβ fiber (PDB ID: 2LMO) derived from solid state NMR was downloaded from the RCSB Protein Data Bank (www.rcsb.org/pdb). Geometric optimization was performed using Gaussian 09 at the B3LYP/6–31 G and 3-21G levels in the water phase. Molecular docking was performed using AutoDock4.0, and the docking results were graphed with VMD 1.9.1 software. SYBYL-X 1.1 software was used to predict the binding affinities with previously constructed 3D-QSAR models. All reagents for chemical synthesis were used as purchased without further purification. [^125I]NaI was purchased from PerkinElmer and ^18F^– was kindly provided by the Chinese PLA General Hospital. ^1H and ^13C NMR spectra were recorded on a Bruker Avance III NMR spectrometer (400 MHz for ^1H; 101 MHz for ^13C) in CDCl3 or DMSO-d6 solutions at room temperature. Mass spectra were acquired with a GCT CA127 Micronass UK instrument. X-ray crystallographic data of compound 12a were collected on a Bruker Smart APEX II diffractometer (Bruker Co., Germany) and deposited at the Cambridge Crystallographic Data Centre as supplementary publication (no. CCDC 1063679). HPLC analysis was performed on a Shimadzu SCL-20 AVP equipped with a Bioscan Flow Count 3200 NaI/PMT γ-radiation scintillation detector and a SPD-20A UV detector, λ = 254 nm. A Venusil MP C18 reverse phase column (Agela Technologies, 5 μm, 4.6 × 250 mm) was used for separations and purity determinations with a binary gradient system (acetonitrile: water = 80%: 20%) at a 1.0 mL/min flow rate. Fluorescent observation was performed on the Axio Observer Z1 inverted fluorescence microscope (Zeiss, Germany) equipped with a DAPI filter set (excitation, 405 nm). Post-mortem brain sections from an autopsy-confirmed AD subject and a control subject were acquired from the Chinese Brain Bank. Transgenic mice (APPswe/PSEN1, male) and wild-type mice (C57BL6, male) were purchased from the Institute of Laboratory Animal Science, Chinese Academy of Medical Sciences. Normal ICR mice (20–22 g, male) were used for in vivo biodistribution, dynamic PET/CT and SPECT/CT scans, and biostability experiments. All experiments on mice were performed in accordance with the guidelines approved by the animal care committee of Beijing Normal University and Xiamen University.

With `[18F]CCOc1ccc(COc2ccc(I)cc2)cc1` [[^18F]12a] the “brain2 min/brain60 min ratio” value was 1.6, the “Biodistribution of radioactivity, blood” value (2 min) was 7.53 ± 0.80 % injected dose per gram and the “Biodistribution of radioactivity, bone” value (2 min) was 2.55 ± 0.29 % injected dose per gram. For the same molecule, the “Biodistribution of radioactivity, brain” value (2 min) was over 5 % injected dose per gram, the “Biodistribution of radioactivity, heart” value (2 min) was 9.11 ± 1.07 % injected dose per gram and the “Biodistribution of radioactivity, intestine” value (from here on “Biodistribution … intestine”) (2 min) was 7.72 ± 0.54 % injected dose per organ. The “Biodistribution of radioactivity, kidney” value (2 min) was 11.63 ± 0.86 % injected dose per gram, the “Biodistribution of radioactivity, liver” value (2 min) was 13.20 ± 1.45 % injected dose per gram and the “Biodistribution of radioactivity, lung” value (2 min) was 9.17 ± 1.10 % injected dose per gram. For the same molecule, the “Biodistribution of radioactivity, muscle” value (2 min) was 5.38 ± 0.47 % injected dose per gram, the “Biodistribution of radioactivity, pancreas” value (shortened to “Biodistribution … pancreas”) (2 min) was 8.75 ± 0.33 % injected dose per gram and the “Biodistribution of radioactivity, spleen” value (2 min) was 4.98 ± 0.32 % injected dose per gram. The “Biodistribution of radioactivity, stomach” value (shortened to “Biodistribution … stomach”) (2 min) was 1.70 ± 0.08 % injected dose per organ, the “Biodistribution of radioactivity, brain” value (2 min, listed as [18F]12a) was 6.76 ± 0.41 % injected dose per gram and the “Biodistribution of radioactivity, blood” value (10 min) was 4.55 ± 0.36 % injected dose per gram. The “Biodistribution of radioactivity, bone” value (10 min) was 2.13 ± 0.27 % injected dose per gram, the “Biodistribution of radioactivity, brain” value (10 min) was 5.73 ± 0.44 % injected dose per gram and the “Biodistribution of radioactivity, heart” value (10 min) was 4.40 ± 0.36 % injected dose per gram. For the same molecule, the “Biodistribution … intestine” value (10 min) was 6.94 ± 0.53 % injected dose per organ, the “Biodistribution of radioactivity, kidney” value (10 min) was 6.19 ± 0.46 % injected dose per gram and the “Biodistribution of radioactivity, liver” value (10 min) was 4.74 ± 0.36 % injected dose per gram. The “Biodistribution of radioactivity, lung” value (10 min) was 4.91 ± 0.60 % injected dose per gram, the “Biodistribution of radioactivity, muscle” value (10 min) was 3.92 ± 0.41 % injected dose per gram and the “Biodistribution … pancreas” value (10 min) was 3.96 ± 0.27 % injected dose per gram. The “Biodistribution of radioactivity, spleen” value (10 min) was 3.55 ± 0.26 % injected dose per gram, the “Biodistribution … stomach” value (10 min) was 1.54 ± 0.32 % injected dose per organ and the “Biodistribution of radioactivity, blood” value (30 min) was 5.91 ± 0.33 % injected dose per gram. The “Biodistribution of radioactivity, bone” value (30 min) was 3.31 ± 0.21 % injected dose per gram, the “Biodistribution of radioactivity, brain” value (30 min) was 5.02 ± 0.32 % injected dose per gram and the “Biodistribution of radioactivity, heart” value (30 min) was 5.41 ± 0.36 % injected dose per gram. The “Biodistribution … intestine” value (30 min) was 8.09 ± 0.43 % injected dose per organ, the “Biodistribution of radioactivity, kidney” value (30 min) was 6.19 ± 0.37 % injected dose per gram and the “Biodistribution of radioactivity, liver” value (30 min) was 4.84 ± 0.28 % injected dose per gram. For the same molecule, the “Biodistribution of radioactivity, lung” value (30 min) was 5.34 ± 0.31 % injected dose per gram, the “Biodistribution of radioactivity, muscle” value (30 min) was 4.71 ± 0.50 % injected dose per gram and the “Biodistribution … pancreas” value (30 min) was 4.55 ± 0.36 % injected dose per gram. For the same molecule, the “Biodistribution of radioactivity, spleen” value (30 min) was 4.29 ± 0.36 % injected dose per gram, the “Biodistribution … stomach” value (30 min) was 2.09 ± 0.32 % injected dose per organ and the “Biodistribution of radioactivity, blood” value (60 min) was 5.87 ± 0.19 % injected dose per gram. For the same molecule, the “Biodistribution of radioactivity, bone” value (60 min) was 3.51 ± 0.78 % injected dose per gram, the “Biodistribution of radioactivity, brain” value (60 min) was 4.26 % injected dose per gram and the “Biodistribution of radioactivity, heart” value (60 min) was 4.76 ± 0.40 % injected dose per gram. For the same molecule, the “Biodistribution … intestine” value (60 min) was 8.50 ± 1.23 % injected dose per organ, the “Biodistribution of radioactivity, kidney” value (60 min) was 5.48 ± 0.41 % injected dose per gram and the “Biodistribution of radioactivity, liver” value (60 min) was 4.64 ± 0.21 % injected dose per gram. For the same molecule, the “Biodistribution of radioactivity, lung” value (60 min) was 5.19 ± 0.36 % injected dose per gram, the “Biodistribution of radioactivity, muscle” value (60 min) was 4.51 ± 0.49 % injected dose per gram and the “Biodistribution … pancreas” value (60 min) was 3.95 ± 0.25 % injected dose per gram. For the same molecule, the “Biodistribution of radioactivity, spleen” value (60 min) was 3.87 ± 0.34 % injected dose per gram, the “Biodistribution … stomach” value (60 min) was 1.70 ± 0.29 % injected dose per organ and the “Biodistribution of radioactivity, brain” value (60 min, listed as [18F]12a) was 4.26 ± 0.18 % injected dose per gram.

For `[18F]CCOc1ccc(OCc2ccc(I)cc2)cc1` [[^18F]7a], the “brain2 min/brain60 min ratio” value was 1.8, the “Biodistribution of radioactivity, blood” value (2 min) was 5.99 ± 0.16 % injected dose per gram and the “Biodistribution of radioactivity, bone” value (2 min) was 2.53 ± 0.43 % injected dose per gram. For the same molecule, the “Biodistribution of radioactivity, brain” value (2 min) was over 5 % injected dose per gram, the “Biodistribution of radioactivity, heart” value (2 min) was 9.32 ± 0.27 % injected dose per gram and the “Biodistribution … intestine” value (2 min) was 6.38 ± 1.04 % injected dose per organ. The “Biodistribution of radioactivity, kidney” value (2 min) was 12.70 ± 0.69 % injected dose per gram, the “Biodistribution of radioactivity, liver” value (2 min) was 17.83 ± 1.41 % injected dose per gram and the “Biodistribution of radioactivity, lung” value (2 min) was 9.34 ± 0.45 % injected dose per gram. The “Biodistribution of radioactivity, muscle” value (2 min) was 5.03 ± 0.63 % injected dose per gram, the “Biodistribution … pancreas” value (2 min) was 8.18 ± 0.79 % injected dose per gram and the “Biodistribution of radioactivity, spleen” value (2 min) was 5.92 ± 1.30 % injected dose per gram. For the same molecule, the “Biodistribution … stomach” value (2 min) was 1.55 ± 0.11 % injected dose per organ, the “Biodistribution of radioactivity, brain” value (2 min, listed as [18F]7a) was 6.14 ± 0.52 % injected dose per gram and the “Biodistribution of radioactivity, blood” value (10 min) was 4.29 ± 0.14 % injected dose per gram. For the same molecule, the “Biodistribution of radioactivity, bone” value (10 min) was 1.55 ± 0.50 % injected dose per gram, the “Biodistribution of radioactivity, brain” value (10 min) was 4.78 ± 0.11 % injected dose per gram and the “Biodistribution of radioactivity, heart” value (10 min) was 4.03 ± 0.34 % injected dose per gram. For the same molecule, the “Biodistribution … intestine” value (10 min) was 5.38 ± 0.33 % injected dose per organ, the “Biodistribution of radioactivity, kidney” value (10 min) was 7.69 ± 1.15 % injected dose per gram and the “Biodistribution of radioactivity, liver” value (10 min) was 6.07 ± 0.27 % injected dose per gram. For the same molecule, the “Biodistribution of radioactivity, lung” value (10 min) was 4.63 ± 0.35 % injected dose per gram, the “Biodistribution of radioactivity, muscle” value (10 min) was 3.46 ± 0.19 % injected dose per gram and the “Biodistribution … pancreas” value (10 min) was 3.96 ± 0.15 % injected dose per gram. For the same molecule, the “Biodistribution of radioactivity, spleen” value (10 min) was 3.33 ± 0.20 % injected dose per gram, the “Biodistribution … stomach” value (10 min) was 1.24 ± 0.13 % injected dose per organ and the “Biodistribution of radioactivity, blood” value (30 min) was 4.36 ± 0.20 % injected dose per gram. For the same molecule, the “Biodistribution of radioactivity, bone” value (30 min) was 2.70 ± 0.48 % injected dose per gram, the “Biodistribution of radioactivity, brain” value (30 min) was 3.85 ± 0.24 % injected dose per gram and the “Biodistribution of radioactivity, heart” value (30 min) was 4.20 ± 0.52 % injected dose per gram. The “Biodistribution … intestine” value (30 min) was 5.95 ± 0.89 % injected dose per organ, the “Biodistribution of radioactivity, kidney” value (30 min) was 6.12 ± 0.79 % injected dose per gram and the “Biodistribution of radioactivity, liver” value (30 min) was 4.31 ± 0.32 % injected dose per gram. The “Biodistribution of radioactivity, lung” value (30 min) was 4.21 ± 0.18 % injected dose per gram, the “Biodistribution of radioactivity, muscle” value (30 min) was 3.82 ± 0.40 % injected dose per gram and the “Biodistribution … pancreas” value (30 min) was 3.62 ± 0.30 % injected dose per gram. The “Biodistribution of radioactivity, spleen” value (30 min) was 3.38 ± 0.23 % injected dose per gram, the “Biodistribution … stomach” value (30 min) was 1.82 ± 0.48 % injected dose per organ and the “Biodistribution of radioactivity, blood” value (60 min) was 4.97 ± 0.12 % injected dose per gram. The “Biodistribution of radioactivity, bone” value (60 min) was 4.16 ± 0.59 % injected dose per gram, the “Biodistribution of radioactivity, brain” value (60 min) was 3.48 % injected dose per gram and the “Biodistribution of radioactivity, heart” value (60 min) was 4.26 ± 0.13 % injected dose per gram. For the same molecule, the “Biodistribution … intestine” value (60 min) was 8.13 ± 1.01 % injected dose per organ, the “Biodistribution of radioactivity, kidney” value (60 min) was 4.77 ± 0.52 % injected dose per gram and the “Biodistribution of radioactivity, liver” value (60 min) was 3.84 ± 0.21 % injected dose per gram. The “Biodistribution of radioactivity, lung” value (60 min) was 4.32 ± 0.17 % injected dose per gram, the “Biodistribution of radioactivity, muscle” value (60 min) was 4.31 ± 0.38 % injected dose per gram and the “Biodistribution … pancreas” value (60 min) was 2.89 ± 0.37 % injected dose per gram. The “Biodistribution of radioactivity, spleen” value (60 min) was 3.28 ± 0.29 % injected dose per gram, the “Biodistribution … stomach” value (60 min) was 1.58 ± 0.18 % injected dose per organ and the “Biodistribution of radioactivity, brain” value (60 min, listed as [18F]7a) was 3.48 ± 0.12 % injected dose per gram.
